Data from patent US4789670A, “Method and compositions for suppression of atherogenesis utilizing cholesterol hydroperoxides” (priority 1987, dated 1988).

Legend:
Bovine brain calmodulin = Bovine brain calmodulin (Bos taurus, UniProt P62157); assay: Calmodulin assayed by activation of calmodulin-dependent cyclic nucleotide phosphodiesterase; format: biochemical; conditions: 122 μM
Text: Bovine brain calmodulin was purified to homogeneity according to the method described by Sharma and Wang (1979), cited above, with the inclusion of phenyl-Sepharose affinity chromatography as described by Dedman and Kaetzel (1983) Methods Enzymol., 102:1-8. Calmodulin-deficient, calmodulin-dependent cyclic nucleotide phosphodiesterase from bovine brain was partially purified by the method described by Sharma et al. (1983) Methods Enzymol., 102:210-219, with the omission of the calmodulin-Sepharose affinity chromatography. Calmodulin was assayed by the activation of the bovine brain calmodulin-dependent cyclic, nucleotide phosphodiesterase as described by Leung et al. (1982) J. Biol. Chem., 259:2742-2747. Briefly, the phosphodiesterase reaction was coupled to the 5,'-nucleotidase reaction. The amount of phosphate released was measured by the malachite green method of Carter and Karl (1982) J. Biochem. Biophys. Methods, 7:7-13. One unit of calmodulin is defined as that amount giving 50% of the maximal activation of the phosphodiesterase.

[1] = test system: rabbits fed an atherogenic diet; conditions: cited from earlier work
[2] = Rabbit feeding experiments: blood plasma cholesterol and cholesterol esters; format: in vivo; conditions: +/- S.D.
Experimental: (§1) For the first feeding experiment, eighteen young adult New Zealand white rabbits (2.7+/-0,3 kg) were divided into […]. The first group (3 animals) was killed immediately and tissue samples obtained for comparison with the experimental animals. The controls (3 rabbits) were fed 160 g/day Purina Pelleted Rabbit Chow (Ralston Purina Co., St. Louis, MO.); the other three groups (4 rabbits each) received the same diet to which was added 1.6 g recrystallized cholesterol, or 50 mg of the cholesterol hydroperoxide-enriched material, or both 1.6 g recrystallized cholesterol and 50 mg of cholesterol hydroperoxides. The sterols were added to the pelleted diet in ethyl ether and the ether was allowed to evaporate under a stream of nitrogen. The animals were fed this diet for 61 days, during which time one animal on the cholesterol diet died of unknown causes. The weight gained by the animals during the experiment, as percent of initial weight, was: controls, 38%; cholesterol, 33%; hydroperoxides, 34%; and cholesterol plus hydroperoxides, 18%. At the end of the feeding period the animals were killed and blood and tissue samples obtained for further investigation.
A second feeding experiment was conducted in the same way as the first with the following changes. Twenty-six rabbits (2.8 +/-0.05 kg) were obtained; two were killed before the feeding experiment began and tissue samples obtained as before. The remaining animals were divided into 6 groups of 4. Four groups received the same diets as in the first experiment. The other two groups received 160/g day Purina Pelleted Rabbit Chow to which was added 50 mg/day of the material produced by reduction of the hydroperoxide-enriched material with NaI; or 1.6 g/day recrystallized cholesterol plus 50 mg/day of the reduced material. The animals received all six diets for 56 days, during which time one control animal and one receiving the hydroperoxide preparation died during removal of blood samples. The weight gain, as percent of initial weight, was: controls, 45%; cholesterol, 31%; hydroperoxides, 29%; cholesterol plus hydroperoxides, 31%; reduced hydroperoxides 35%, and cholesterol plus reduced hydroperoxides, 30%.
(§2) The aortas were sectioned longitudinally and stained with Sudan IV (Holman et al., 1958Lat. Invest., 7:42-47). Serum lipoproteins were separated as described by Havel et al. (1955) J. Clin. Invest., 34:1345-1353. Lipids were extracted by the method of Bligh and Dyer (1959) Can. J. Biochem. and Physiol., 37:911-917 and free and esterified cholesterol concentrations in plasma, lipoproteins, and tissue were determined by the method of Sale (1984) Anal. Biochem., 142:347-350.

[3] = Rabbit feeding experiment: cholesterol and cholesterol esters in liver and heart; format: in vivo; conditions: first feeding experiment, +/- S.D.
Experimental: as §1, §2

[4] = test system: New Zealand white rabbits; assay: Rabbit feeding experiments: aortas stained with Sudan IV for atherosclerotic lesions; format: in vivo
Experimental: as §1
A second feeding experiment was conducted in the same way as the first with the following changes. Twenty-six rabbits (2.8 +/-0.05 kg) were obtained; two were killed before the feeding experiment began and tissue samples obtained as before. The remaining animals were divided into 6 groups of 4. Four groups received the same diets as in the first experiment. The other two groups received 160/g day Purina Pelleted Rabbit Chow to which was added 50 mg/day of the material produced by reduction of the hydroperoxide-enriched material with NaI; or 1.6 g/day recrystallized cholesterol plus 50 mg/day of the reduced material. […]
The aortas were sectioned longitudinally and stained with Sudan IV (Holman et al., 1958Lat. Invest., 7:42-47). […] J. Biochem. and Physiol., 37:911-917 and free and esterified cholesterol concentrations in plasma, lipoproteins, and tissue were determined by the method of Sale (1984) Anal. Biochem., 142:347-350.

Structure (SMILES): CC(C)CCC[C@@H](C)[C@H]1CC[C@H]2[C@@H]3CCC4=CC(=O)CC[C@]4(C)[C@H]3CC[C@]12C [4-cholesten-3-one]
- effect in the phosphodiesterase assay (Bovine brain calmodulin): without effect

Structure (SMILES): CC(C)CCC[C@@H](C)[C@H]1CC[C@H]2[C@@H]3C(=O)C=C4C[C@@H](O)CC[C@]4(C)[C@H]3CC[C@]12C [5-cholesten-3β-ol-7-one]
- effect in the phosphodiesterase assay (Bovine brain calmodulin): without effect

Structure (SMILES): CC(C)CCC[C@@H](C)[C@H]1CC[C@H]2[C@@H]3C[C@@H]4O[C@@]45C[C@@H](O)CC[C@]5(C)[C@H]3CC[C@]12C [Cholesterol-5α,6α-epoxide, cholesterol-5α,6α-epoxide]
- effect in the phosphodiesterase assay (Bovine brain calmodulin): without effect

Structure (SMILES): CN(C)CCCN1c2ccccc2Sc2ccc(Cl)cc21 [chlorpromazine]
- development of atherosclerotic lesions [1]: reduced the development of such lesions
- effect on blood cholesterol [1]: without lowering of blood cholesterol

Structure (SMILES): CC(C)CCC[C@@H](C)[C@H]1CC[C@H]2[C@@H]3CC=C4C[C@@H](O)CC[C@]4(C)[C@H]3CC[C@]12C [cholesterol]
- Final blood plasma Cholesterol ([2]; first feeding experiment): 446 ± 163 mg/dL
- Final blood plasma Cholesterol Esters ([2]; first feeding experiment): 1507 ± 361 mg/dL
- Final blood plasma Cholesterol ([2]; second feeding experiment): 828 ± 459 mg/dL
- Final blood plasma Cholesterol Esters ([2]; second feeding experiment): 1520 ± 820 mg/dL
- cholesterol and esters, HEART [3]: 158 +/- 74 mg/100 g wet tissue
- cholesterol and esters, LIVER [3]: 4960 +/- 1416 mg/100 g wet tissue
- cholesterol, HEART [3]: 160 +/- 24 mg/100 g wet tissue
- cholesterol, LIVER [3]: 1217 +/- 615 mg/100 g wet tissue
- atherosclerotic lesions in aorta (Sudan IV) ([4]; first feeding experiment, 61 days, added to chow: 1.6 g/day cholesterol and/or 50 mg/day hydroperoxide material): heavily infiltrated with fatty material
- atherosclerotic lesions in aorta (Sudan IV) ([4]; first feeding experiment, 61 days, added to chow: 1.6 g/day cholesterol and/or 50 mg/day hydroperoxide material, listed as Cholesterol): extensive atheroma formation
- atherosclerotic lesions in aorta (Sudan IV) ([4]; second feeding experiment, 56 days, added to chow: 1.6 g/day cholesterol and/or 50 mg/day test material): less than in the first experiment
